Measurements as given in the NIST ThermoML archive (doi:10.1021/acs.jced.9b00311).

What was measured:
[1] = Liquid; for speed of sound: Frequency=3 MHz, Pulse-echo method; for mass density: Vibrating tube method
[2] = xn = mol fraction of the nth substance listed; conditions: Liquid, Vibrating tube method, x1 = 1

CCCCCCCCCCCC [dodecane]
[1]
Conditions | mass density, 303.15 K [kg/m3] | mass density, 313.15 K [kg/m3] | speed of sound, 303.15 K [m/s] | speed of sound, 313.15 K [m/s]
10000 kPa | 748.5 | 741.6 | 1318.5 | 1281.7
20000 kPa | 755.1 | 748.5 | 1372.4 | 1337.9
30000 kPa | 761.3 | 754.8 | 1421.4 | 1389.6
40000 kPa | 766.9 | 760.8 | 1468.5 | 1436.8
50000 kPa | 772 | 766.3 | 1512.3 | 1481.5
60000 kPa | 776.8 | 771.5 | 1553.7 | 1524.2
70000 kPa | 781.4 | 776.4 | 1593.3 | 1564.6

O=C=O [carbon dioxide]
mass density [kg/m3], [1]
Conditions | 10000 kPa | 20000 kPa | 30000 kPa | 40000 kPa | 50000 kPa | 60000 kPa | 70000 kPa
303.15 K | 770.5 | 890.1 | 949.2 | 989.1 | 1020 | 1045.8 | 1068
313.15 K | 628.9 | 839.3 | 909.2 | 955.5 | 990.5 | 1019 | 1043.5

O=C=O [carbon dioxide] + CCCCCCCCCCCC
mass density [kg/m3], [2]
Conditions | 10000 kPa | 20000 kPa | 30000 kPa | 40000 kPa | 50000 kPa | 60000 kPa | 70000 kPa
303.15 K | 770.5 | 890.1 | 949.2 | 989.1 | 1020 | 1045.8 | 1068
313.15 K | 628.9 | 839.3 | 909.2 | 955.5 | 990.5 | 1019 | 1043.5
